Experimental data published in US20250275976A1, “Methods of Treating Neuroinflammatory Conditions” (Athira Pharma, Inc., priority 2022, published 2025).
Like-named read-outs stand apart in the source and are kept apart here.

How the values were obtained:
[1] = system: THP-1-differentiated macrophages; test: Pro-inflammatory cytokines in supernatants of LPS-challenged THP-1-differentiated macrophages; assay type: cell-based, human; design: key to Significant reduction in pro-inflammatory cytokine expression: IL-6 / Significant reduction in pro-inflammatory cytokine expression: TNF-α / Significant reduction in pro-inflammatory cytokine expression: IL-1β: “NS” indicates a non-significant reduction in the indicated cytokine; “+” indicates a p value <0.05 in Tukey post test; “++” indicates a p value <0.01 in Tukey post test; settings: for Significant reduction in pro-inflammatory cytokine expression: IL-1β / Significant reduction in pro-inflammatory cytokine expression: IL-6 / Significant reduction in pro-inflammatory cytokine expression: TNF-α: LPS 24 hrs
Description: Neuroinflammation plays a crucial role in disease progression and is a complex phenomenon involving various cells that affect many extra- and intracellular signaling pathways and cytokine production. The macrophage of the brain (microglia) is the main agent of innate immunity in the CNS and performs various functions, including neuroprotection, in response to inflammatory signals. Activated microglia participate in developing neuroinflammation, responding to toxic exogenous substances (like LPS) or endogenous substances (like amyloid-beta). Here, THP-1 cells were used as an in-vitro cell model to evaluate mechanisms relevant to CNS inflammation. Differentiation with phorbol-12-myristate-13-acetate (PMA) causes THP-1 monocyte cells to acquire functional and morphological resemblance to macrophages. LPS interacts with THP-1 differentiated macrophage through the toll-like receptor 4, triggering the inflammatory response and stimulating pro-inflammatory cytokine release and eventually leading to cellular death. Test compounds were investigated for whether they have anti-inflammatory effects on LPS-challenged macrophage cultures. THP-1-differentiated macrophages were treated with test compounds for 20 minutes, followed by 24 hrs of LPS challenge. Culture supernatants were then collected to analyzed for the presence of pro-inflammatory cytokines: interleukin 1β (IL--1β), interleukin 6 (IL-6) and tumor necrosis factor α (TNF-α).
Cytokine quantification in cell culture supernatants was accomplished by homogeneous time resolved fluorescence (HTRF) kits to assess levels of IL-1β (Human IL-1β kit, #62HIL1BPEG, Cisbio) and IL-6 (Human IL-6 kit, 62HILO6PET, Cisbio), and by ELISA (Human TNF-α ELISA kit, KHC3011, ThermoFisher) to determine the levels of TNF-α.
Data analysis was performed via 1-way ANOVA with Tukey post-test compared to LPS treatment cultures using Prism statistical software (GraphPad). Tabular data indicates significance of reduction in culture supernatants for the indicated analyte at the indicated dose.

Prp-TDP43^A315T mice = assay type: in vivo
Protocol: Extranuclear accumulation of TDP-43 protein is a pathological hallmark of a number of neurological diseases. […] Male Prp-TDP43^A315T mice (N=10 mice per group) at 3 weeks of age were administered daily treatments of test compounds. Compound A19 was administered via subcutaneous injection, and Compound 5a and Compound 6a were administered via oral gavage. After 2 months of treatment, plasma samples were collected for cytokine quantification. […] Plasma IL-6 and TNF-α cytokine expression levels were determined using the ELISA method. The submandibular vein was punctured with a lancet and a blood drop was collected directly on a microtube containing EDTA as anticoagulant. Samples were centrifuged for 15 minutes at 1000×g at 4° C. within 20 minutes of collection. 20 μl of plasma supernatant was stored at −20° C. before ELISA analysis.
Plasma was diluted at 1:10 in sterile PBS, and IL-6 and TNF-α quantification was performed in duplicate for each animal using 10 μl of sample per well in 96-well plates using the ELISA method (IL-6: Signa-Aldrich Cat #RAB0308, TNF-α: Sigma-Aldrich Cat #RAB0477). Statistical analysis was carried out by 2-way ANOVA with Dunnett's multiple comparisons post-test with compound-treated samples compared to vehicle-treated samples.

[2] = system: Rat primary cortical neuron cultures; test: Neuroprotection of rat cortical neurons against LPS challenge (Cell Titer-Glo); settings: at at least one dose tested
Protocol: (§1) To assess the neuroprotective effect of compound treatment against inflammatory insult, primary cultured cortical neurons were subjected to lipopolysaccharide (LPS) treatment for 24h along with various compound doses of compounds of Formula (I) or Compound A19. […] Rat primary cortical neuron cultures were grown at 37° C., 5% C02 in Complete Neurobasal Medium supplemented with B27/GDNF/BDNF containing 10% FBS until maturity. 25 μl of culture volume were seeded in a 384-well plate at 5,000 cells/well, and treated with 1 μM, 100 nM, 10 nM, 1 nM, or 0.1 nM of test compound for 15 minutes. Cells were then subjected to 1 μM LPS challenge for 24 hours. Luminescence measurements to assess relative levels of ATP were performed on an Envision plate reader (Perkin Elmer). Data for DMSO control were set to 100% cell viability, and each group (n=4) were averaged and presented as mean±SEM.

[3] = system: Rat primary cortical neuron cultures; settings: LPS 24 h
Protocol: as §1

[4] = system: primary culture of both cortical neurons and microglia; test: Microglial activation (Iba1 area) after Aβ1-42 challenge; assay type: cell-based; settings: 5 ng/ml; 15 min Pre-Aβ challenge
[5] = 2 months of treatment, doses as in the value

Compound: CCC(C)CN1CC2N(Cc3ccc(OC(F)F)cc3)CCC(=O)N2[C@@H](C)C1=O (some centres unmarked) [Compound 6a]
- Expression of IL-1β and TNF-α (result in words) ([1]; at at least one tested dose): significantly reduced
- Significant reduction in pro-inflammatory cytokine expression: IL-1β ([1]; dose 0.1 nM): NS
- Significant reduction in pro-inflammatory cytokine expression: IL-6 ([1]; dose 0.1 nM): NS
- Significant reduction in pro-inflammatory cytokine expression: TNF-α ([1]; dose 0.1 nM): NS
- Significant reduction in pro-inflammatory cytokine expression: IL-1β ([1]; dose 10 nM): NS
- Significant reduction in pro-inflammatory cytokine expression: IL-6 ([1]; dose 10 nM): NS
- Significant reduction in pro-inflammatory cytokine expression: TNF-α ([1]; dose 10 nM): NS
- Significant reduction in pro-inflammatory cytokine expression: IL-1β ([1]; dose 1000 nM): + (“+” indicates a p value <0.05 in Tukey post test)
- Significant reduction in pro-inflammatory cytokine expression: IL-6 ([1]; dose 1000 nM): NS
- Significant reduction in pro-inflammatory cytokine expression: TNF-α ([1]; dose 1000 nM): + (“+” indicates a p value <0.05 in Tukey post test)
- Significant decrease in plasma cytokine expression after 2 months of treatment: IL-6 (Prp-TDP43^A315T mice; 10 mg/kg PO daily): ++++ (++++ = p < 0.0001)
- Significant decrease in plasma cytokine expression after 2 months of treatment: TNF-α (Prp-TDP43^A315T mice; 10 mg/kg PO daily): ++++ (++++ = p < 0.0001)
- Significant decrease in plasma cytokine expression after 2 months of treatment: IL-6 (Prp-TDP43^A315T mice; 20 mg/kg PO daily): ++++ (++++ = p < 0.0001)
- Significant decrease in plasma cytokine expression after 2 months of treatment: TNF-α (Prp-TDP43^A315T mice; 20 mg/kg PO daily): ++++ (++++ = p < 0.0001)
- Plasma IL-6 expression (result in words) (Prp-TDP43^A315T mice; [5]): significantly reduced expression of both cytokines at doses of 10 and 20 mg/kg
- Plasma TNF-α expression (result in words) (Prp-TDP43^A315T mice; [5]): significantly reduced expression of both cytokines at doses of 10 and 20 mg/kg
- Protection of primary neurons from LPS-stimulated inflammatory toxicity (in words) [2]: protected primary neurons from LPS-stimulated inflammatory toxicity
- Significance of neuroprotection vs 1 uM LPS ([3]; dose 0.1 nM): +++ (+++ indicates p<0.001)
- Significance of neuroprotection vs 1 uM LPS ([3]; dose 1 nM): +++ (+++ indicates p<0.001)
- Significance of neuroprotection vs 1 uM LPS ([3]; dose 10 nM): +++ (+++ indicates p<0.001)
- Significance of neuroprotection vs 1 uM LPS ([3]; dose 100 nM): +++ (+++ indicates p<0.001)
- Significance of neuroprotection vs 1 uM LPS ([3]; dose 1 μM): +++ (+++ indicates p<0.001)

Compound: HGF: Hepatocyte growth factor, 5 ng/ml treatment in the microglia culture
- Significant decrease in Iba1 area, compared to vehicle treated (Aβ challenge) [4]: + (“+” indicates a p value < 0.05 in Fisher's LSD post-test compared to Aβ challenged)
